Assay [1] deals with MDA-MB-231 breast cancer cells. The assay can be described thus: MTT cytotoxicity assay, MDA-MB-231. Particulars: Homo sapiens, MDA-MB-231; MTT, 72 h, n = 3; read-out: IC50 MDA-MB-231 (Breast). Format: cell-based. Here is the method: (§1) The synthesized derivatives were screened for their cytotoxic activities against five cancer cell lines (two breast cancer cell lines: MCF-7 and MDA-MB-231, two ovarian cancer cell lines: A2780 and KF-28, and one cervical cancer cell line: Hela). This study was performed using serial concentrations of 25, 50, 100, 150, and 200 µM of each compound using the MTT assay. Percentages of cell viability of the tested compounds with serial concentration against the tested panel of cell lines are depicted in Figure 1, in which there is a decrease in the cell viability with increasing concentrations in a dose–response pattern. […] Therefore, compounds 5a, 5b, and 5f were thought worthwhile to further investigate their effects as either cytotoxic or antiproliferative effects and whether any of them is an inducer of apoptotic cell death in the representative cancer cell lines KF-28 and A2780.
(§2) The human ovarian serous carcinoma cell line KF-28 was kindly provided by Prof. Yoshihiro Kikuchi (Department of Obstetrics and Gynecology, National Defense Medical College, Saitama, Japan), and A2780 cell line was purchased from the ECACC (ECACC 93112519). The cells were maintained in RPMI-1640 (Sigma-Aldrich, United States). The cervical cancer cell line, Hela cells, breast cancer cell line, MCF-7, and MDA-MB-231 were purchased from the ATCC and cultured in DMEM. Both types of media were supplemented with 2 mM L-glutamine (Lonza, Belgium), 10% FBS (Sigma, St. Louis, MO, United States), and 1% penicillin/streptomycin (Lonza, Belgium). All cells were incubated at 37°C in 5% CO2 atmosphere (NuAire). All cancer cell lines were cultured according to the routine tissue culture work as discussed by the Freshney group ([Freshney, 2010]). The cells were plated at a density of 5,000 cells in triplicates in a 96-well plate. On the next day, the cells were treated with the indicated compound(s) at the indicated concentrations in a final volume of 100 μL media. Cell viability was assessed after 72 h using MTT solution (Promega) ([Mosmann, 1983]). 20 μL of the reagent was added to each well, the plate was incubated for 3 h, […] was subsequently measured (570 nm) using a plate reader, and then the IC50 values were calculated using Excel ([Tantawy et al., 2020]).
(Tetrazolium dyes change colour on reduction, which living cells bring about.)

Assay [2] deals with Hela cervical cancer cells. The assay can be described thus: MTT cytotoxicity assay, Hela. It counts as cell-based. Conditions: Homo sapiens, MTT, 72 h, n = 3, read-out: IC50 Hela (Cervical). Here is the method:
as §1, §2

For assay [3], the system named is MEF normal mouse embryonic fibroblast. The assay can be described thus: MTT cytotoxicity assay, MEF. Format: cell-based. Conditions: n = 3.
The next assay concerns C-myc in KF-28 cells. The assay can be described thus: Western blot of C-myc expression. Format: cell-based, human. Particulars: two days, vs DMSO. From the text: Pim-1 has been classified as a weak oncogene. However, a very strong synergism with regard to tumorigenicity occurs between Pim-1 and C-myc. This synergism is observed with bitransgenic mice overexpressing C-myc and Pim-1 in lymphoid tissue ([Möröy et al., 1991]). To further validate the simulation and docking data which introduced Pim-1 kinase as a potential target molecule for some of the tested compounds, we decided to check the effect of treatment with the selected compounds on the C-myc protein expression as a downstream target molecule known to be phosphorylated and stabilized by Pim-1 as a kinase ([Zhang et al., 2008]). […] Taking into consideration the fact that Pim-1 phosphorylates C-myc and controls its stability ([Zhang et al., 2008]) may conclude that the reduction of C-myc expression under the indicated compounds is due to the inhibition of Pim-1 activity (Figure 3). Therefore, the speculated inhibition of Pim-1 is supported by the above-mentioned qPCR data (Figure 3) and further supported by C-myc downregulation. Our results agree with the reported one which states that some thiazole derivatives are potent inhibitors against protein kinases including Pim-1 kinase ([Mohareb et al., 2019]).
Cell lysates were prepared by lysing cells in RIPA buffer (10 mM Tris (pH 7.4), 150 mM NaCl, 1% Triton X-100, 1% Na deoxycholate), supplemented with protease inhibitor cocktail (Sigma). Protein concentration of whole cell lysates was determined by the […] using the BSA kit (Pierce), and then equal protein amounts were heated to 95 °C for 5 min with sodium dodecyl sulfate (SDS) sample buffer (25 ml glycerol, 31.2 ml Tris buffer, 7.5 ml SDS, a dash of bromophenol blue/100 ml) and run on 15% SDS polyacrylamide gel electrophoresis (SDS-PAGE). Protein samples were then blotted onto PVDF membranes (Immobilon P, Watford, United Kingdom). The membranes were incubated in blocking solution (5% non-fat milk in PBS) for 1 h and then in primary antibody (anti-human C-myc pAb (Abcam; at dilution of 2:1,000) or GAPDH mAb (Santa Cruz; at dilution of 20:1,000)) overnight. After 3 × 10 min washes in TBS (0.1% Tween-20 in PBS), the membrane was incubated for 1 h at room temperature with horseradish-peroxidase–linked (HRP) secondary anti-rabbit or anti-mouse Ab (1:1,000 dilution in PBS). Signals on the membrane were developed using ECL reagent (Amersham, CA, United States) and then were imaged with the Chemidoc system (Bio-Rad, United States).
For orientation: Immunoblotting shows a protein as a band on a membrane.

For orientation: IC50 means the concentration that gives 50% inhibition.

Entries after “also recorded” stand apart in the source; their conditions may differ.

As for `Cc1[nH]c(=NN=C2CCC(=NN=c3[nH]c(C)c(N=Nc4ccc(Cl)cc4)s3)CC2)sc1N=Nc1ccc(Cl)cc1` [5c, 1,4-Bis((5-(4-chlorophenylazo)-4-methylthiazol-2-ylidene)hydrazono)cyclohexane], the 50% inhibitory concentration (IC50) was 116 µM in assay [1], < 25 µM in assay [2] and > 200 µM in assay [3]. The “C-myc protein expression (Western blot)” value with C-myc in KF-28 cells was “observable downregulation; also recorded: Appreciated downregulation”.

The record behind these values is article PMC8397418, “Novel Bis-Thiazole Derivatives: Synthesis and Potential Cytotoxic Activity Through Apoptosis With Molecular Docking Approaches” (Frontiers in Chemistry, 2021).
